# Changes are numbered by the printed parent chain.
# Tests used:
# Test in all cases: E. coli hemG growth inhibition by herbicide, AtPPO1 variant
# Assay type in all cases: cell-based
# Details in all cases: read-out: percentage growth inhibition
# AtPPO1 G64A = target: T1, AtPPO1 G64A (Arabidopsis thaliana, UniProt P55826, G64A)
# T1 construct: expressed in transfected cells; host or cells: E. coli BL21(DE3) hemG (hemG replaced by CmR), pET24a plasmid
# T1 sequence (P55826 35-537 G64A): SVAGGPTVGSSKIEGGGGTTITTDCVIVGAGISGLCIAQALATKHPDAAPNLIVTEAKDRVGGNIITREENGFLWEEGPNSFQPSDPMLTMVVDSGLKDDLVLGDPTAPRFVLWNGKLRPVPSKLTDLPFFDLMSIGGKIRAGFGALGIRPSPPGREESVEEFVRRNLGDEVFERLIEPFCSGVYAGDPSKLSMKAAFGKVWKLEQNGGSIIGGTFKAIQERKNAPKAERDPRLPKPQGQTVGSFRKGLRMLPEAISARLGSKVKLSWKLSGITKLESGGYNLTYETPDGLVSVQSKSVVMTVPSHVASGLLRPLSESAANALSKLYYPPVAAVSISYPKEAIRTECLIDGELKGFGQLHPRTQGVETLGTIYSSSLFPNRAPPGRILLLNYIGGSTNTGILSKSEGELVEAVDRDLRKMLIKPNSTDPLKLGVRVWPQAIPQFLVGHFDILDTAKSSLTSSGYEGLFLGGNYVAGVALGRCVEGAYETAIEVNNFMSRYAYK
# Procedure, shortened: (§1)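 Variant plasmids were transformed into hemG-null BL21(DE3) and precultured 24 h with hematin. Washed cells were diluted 1:100 into Terrific broth containing 0.1 mM IPTG and herbicide (6.25 ppm 0 or E; 0.78 ppm B) or DMSO. After 24 h at 37° C, OD600 gave percent inhibition.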
# AtPPO1 V88I = target: T2, AtPPO1 V88I (Arabidopsis thaliana, UniProt P55826, V88I)
# T2 construct: expressed in transfected cells; host or cells: E. coli BL21(DE3) hemG (hemG replaced by CmR), pET24a plasmid
# T2 sequence (P55826 35-537 V88I): T1 sequence (P55826 35-537 G64A) with A30G, V54I
# Procedure, shortened: as §1
# AtPPO1 WT = target: T3, AtPPO1 WT (Arabidopsis thaliana, UniProt P55826)
# T3 construct: expressed in transfected cells; host or cells: E. coli BL21(DE3) hemG (hemG replaced by CmR), pET24a plasmid
# T3 sequence (P55826 1-537): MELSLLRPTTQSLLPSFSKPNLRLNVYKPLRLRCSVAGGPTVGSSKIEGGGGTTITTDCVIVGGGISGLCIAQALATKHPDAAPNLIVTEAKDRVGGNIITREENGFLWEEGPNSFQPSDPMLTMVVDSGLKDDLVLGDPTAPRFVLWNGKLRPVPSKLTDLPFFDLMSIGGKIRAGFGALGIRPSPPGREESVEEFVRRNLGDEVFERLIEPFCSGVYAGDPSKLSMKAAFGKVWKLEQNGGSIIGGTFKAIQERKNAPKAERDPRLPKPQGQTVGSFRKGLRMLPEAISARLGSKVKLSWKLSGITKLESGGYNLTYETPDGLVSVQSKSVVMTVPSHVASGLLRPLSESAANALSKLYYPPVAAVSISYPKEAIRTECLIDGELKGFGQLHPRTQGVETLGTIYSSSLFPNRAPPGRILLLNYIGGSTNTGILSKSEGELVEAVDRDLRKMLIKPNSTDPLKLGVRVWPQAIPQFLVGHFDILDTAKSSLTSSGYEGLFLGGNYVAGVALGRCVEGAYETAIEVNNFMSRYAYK
# Procedure, shortened: as §1
# AtPPO1 D448N = target: T4, AtPPO1 D448N (Arabidopsis thaliana, UniProt P55826, D448N)
# T4 construct: expressed in transfected cells; host or cells: E. coli BL21(DE3) hemG, pET24a plasmid
# T4 sequence (P55826 35-537 D448N): T1 sequence (P55826 35-537 G64A) with A30G, D414N
# Procedure, shortened: as §1
Compound,inhibition at 6.25 ppm (AtPPO1 G64A),inhibition at 6.25 ppm (AtPPO1 V88I),inhibition at 6.25 ppm (AtPPO1 WT),inhibition at 6.25 ppm (AtPPO1 D448N),inhibition at 0.78 ppm (AtPPO1 G64A),inhibition at 0.78 ppm (AtPPO1 V88I),inhibition at 0.78 ppm (AtPPO1 WT),inhibition at 0.78 ppm (AtPPO1 D448N)
"CC(C)N(C)S(=O)(=O)NC(=O)c1cc(-n2c(=O)cc(C(F)(F)F)n(C)c2=O)c(F)cc1Cl [Herbicide E, saflufenacil]",34%,66%,64%,63%,–,–,–,–
"C#CCN1C(=O)C(F)(F)Oc2cc(F)c(-n3c(=O)n(C)c(=S)n(C)c3=O)cc21 [Herbicide B, trifludimoxazin]",–,–,–,–,36%,32%,61%,40%
"CCOC(=O)[C@]1(C)CC(c2cc(-n3c(=O)n(C)c(=S)n(C)c3=O)c(F)cc2Cl)=NO1 [Herbicide D, ethyl (5S)-3-[2-chloro-5-(3,5-dimethyl-2,6-dioxo-4-thioxo-1,3,5-triazinan-1-yl)-4-fluoro-phenyl]-5-methyl-4H-isoxazole-5-carboxylate]",38%,43%,58%,38%,–,–,–,–

# From patent US20260297542A1, “HERBICIDE RESISTANT PLANTS” (SYNGENTA CROP PROTECTION AG, priority 2023, published 2026)
